≈ marks a conversion by molar mass, not a printed value.
Key:
[1] = MTT cytotoxicity assay, HepG2; format: cell-based, human; settings: human, HepG2 cells (hepatocellular carcinoma), 48 h
Method: (§1) The assessment of cytotoxicity for the methanolic extract and isolated flavonoids was performed under controlled and sterile conditions within a Class II A2 Laminar flow biosafety cabinet. The carcinoma cell lines used in this study was obtained from Nawah Scientific Inc. (Cairo, Egypt). The cells were cultured in Dulbecco’s Modified Eagle’s Medium, enriched with 10% heat-inactivated fetal bovine serum, 100 U/ml penicillin, and 100 μg/ml streptomycin sulfate, maintained at […] in humidified incubators with 5% CO2. Upon reaching approximately 80% confluence, the cells were subcultured using a trypsin–EDTA solution. Harvesting occurred during the logarithmic growth phase. The methanolic extract and isolated flavonoids were dissolved in DMSO and stored at − 20 °C. For each experimental trial, the stock solutions were mixed with the culture medium to obtain the required final concentrations.
(§2) The effectiveness of the extract was compared to that of the reference drug, Doxorubicin. The percentage of cell viability was calculated by taking the ratio of the absorbance of the plant extract to that of the control, multiplied by 100. Furthermore, the IC50 value of the plant extract was determined using Sigma Plot software version 11 (Spw.exe) (https://sigmaplot.software.informer.com/11.0/).

[2] = system: hepatocellular carcinoma (HepG2); test: MTT cytotoxicity assay, HepG2; format: cell-based, human; settings: Homo sapiens, HepG2, 48 h, read-out: IC50
Method: as §1, §2

[3] = MTT cytotoxicity assay, Caco-2; format: cell-based, human; settings: human, Caco-2 cells (human colonic epithelial cells), 48 h
Method: as §1, §2

[4] = system: human colonic epithelial cells (Caco-2); test: MTT cytotoxicity assay, Caco-2; format: cell-based; settings: Homo sapiens, Caco-2, 48 h, read-out: IC50
Method: as §1, §2

[5] = MTT cytotoxicity assay, HTC-116; format: cell-based, human; settings: human, HTC-116 cells (human colorectal carcinoma), 48 h
Method: as §1, §2

[6] = system: human colorectal carcinoma cells (HTC-116); test: MTT cytotoxicity assay, HTC-116; format: cell-based; settings: Homo sapiens, HTC-116, 48 h, read-out: IC50
Method: as §1, §2

Structure (SMILES): COc1cccc2c1C(=O)c1c(O)c3c(c(O)c1C2=O)C[C@@](O)(C(=O)CO)C[C@@H]3O[C@H]1C[C@H](N)[C@H](O)[C@H](C)O1 [Doxorubicin, reference compound]
- cytotoxicity at 48 h, 6.25 µg/ml ([1]; HepG2, 6.25 ug/ml): 31.8%
- viability at 48 h, 6.25 µg/ml ([1]; HepG2, 6.25 ug/ml, read-out: % Cell viability): 68.2%
- cytotoxicity at 48 h, 12.5 µg/ml ([1]; HepG2, 12.5 ug/ml): 37.7%
- viability at 48 h, 12.5 µg/ml ([1]; HepG2, 12.5 ug/ml, read-out: % Cell viability): 62.3%
- cytotoxicity at 48 h, 25 µg/ml ([1]; HepG2, 25 ug/ml): 60.1%
- viability at 48 h, 25 µg/ml ([1]; HepG2, 25 ug/ml, read-out: % Cell viability): 39.9%
- cytotoxicity at 48 h, 50 µg/ml ([1]; HepG2, 50 ug/ml): 76%
- viability at 48 h, 50 µg/ml ([1]; HepG2, 50 ug/ml, read-out: % Cell viability): 24%
- cytotoxicity at 48 h, 100 µg/ml ([1]; HepG2, 100 ug/ml): 92%
- viability at 48 h, 100 µg/ml ([1]; HepG2, 100 ug/ml, read-out: % Cell viability): 7.95%
- IC50 [2]: 23.6 µg/mL (≈ 43.3 µM)
- cytotoxicity at 48 h, 6.25 µg/ml ([3]; Caco-2, 6.25 ug/ml): 28.1%
- viability at 48 h, 6.25 µg/ml ([3]; Caco-2, 6.25 ug/ml, read-out: % Cell viability): 71.9%
- cytotoxicity at 48 h, 12.5 µg/ml ([3]; Caco-2, 12.5 ug/ml): 41.6%
- viability at 48 h, 12.5 µg/ml ([3]; Caco-2, 12.5 ug/ml, read-out: % Cell viability): 58.4%
- cytotoxicity at 48 h, 25 µg/ml ([3]; Caco-2, 25 ug/ml): 53.9%
- viability at 48 h, 25 µg/ml ([3]; Caco-2, 25 ug/ml, read-out: % Cell viability): 46.1%
- cytotoxicity at 48 h, 50 µg/ml ([3]; Caco-2, 50 ug/ml): 71.2%
- viability at 48 h, 50 µg/ml ([3]; Caco-2, 50 ug/ml, read-out: % Cell viability): 28.8%
- cytotoxicity at 48 h, 100 µg/ml ([3]; Caco-2, 100 ug/ml): 92.1%
- viability at 48 h, 100 µg/ml ([3]; Caco-2, 100 ug/ml, read-out: % Cell viability): 7.87%
- IC50 [4]: 27.1 µg/mL (≈ 49.9 µM)
- cytotoxicity at 48 h, 6.25 µg/ml ([5]; HTC-116, 6.25 ug/ml): 31%
- viability at 48 h, 6.25 µg/ml ([5]; HTC-116, 6.25 ug/ml, read-out: % Cell viability): 69%
- cytotoxicity at 48 h, 12.5 µg/ml ([5]; HTC-116, 12.5 ug/ml): 43.1%
- viability at 48 h, 12.5 µg/ml ([5]; HTC-116, 12.5 ug/ml, read-out: % Cell viability): 56.9%
- cytotoxicity at 48 h, 25 µg/ml ([5]; HTC-116, 25 ug/ml): 53.8%
- viability at 48 h, 25 µg/ml ([5]; HTC-116, 25 ug/ml, read-out: % Cell viability): 46.2%
- cytotoxicity at 48 h, 50 µg/ml ([5]; HTC-116, 50 ug/ml): 70%
- viability at 48 h, 50 µg/ml ([5]; HTC-116, 50 ug/ml, read-out: % Cell viability): 30%
- cytotoxicity at 48 h, 100 µg/ml ([5]; HTC-116, 100 ug/ml): 91.2%
- viability at 48 h, 100 µg/ml ([5]; HTC-116, 100 ug/ml, read-out: % Cell viability): 8.77%
- IC50 [6]: 25.7 µg/mL (≈ 47.3 µM)

Source: paper PMC12446468, “Anti-inflammatory and cytotoxic assessment of flavonoids isolated from Viola odorata flowers with computer-guided docking study” (Scientific Reports, 2025)
